The subject of one assay is HCV replicon. The assay is described as follows: HCV replicon assay (FRET or luciferase reporter). It is filed as cell-based. The conditions noted are these: Hepatitis C virus, one of the methods described, class symbol. The text has this:
To perform the HCV FRET screening assay, 96-well cell culture plates were used, The FRET peptide (Anaspec, Inc.) (Taliani et al., Anal. Biochem., 240:60-67 (1996)) contains a fluorescence donor, EDANS, near one end of the peptide and an acceptor, DABCYL, near the other end. The fluorescence of the peptide is quenched by […] resonance energy transfer (RET) between the donor and the acceptor, but as the NS3 protease cleaves the peptide the products are released from RET quenching and the fluorescence of the donor becomes apparent. The assay reagent was made as follows: 5× cell Luciferase cell culture lysis reagent from Promega (#E153A) diluted to 1× with dH2O, NaCl added to 150 mM final, the FRET peptide diluted to 20 μM final from a 2 mM stock.
To prepare plates, HCV replicon cells, with or without a Renilla luciferase reporter gene, were trypsinized and placed into each well of a 96-well plate with titrated test compounds added in columns 3 through 12; columns 1 and 2 contained a control compound (HCV protease inhibitor), and the bottom row contained cells without compound. The plates were then placed in a CO2 incubator at 37° C.
Subsequent to addition of the test compounds described above (FRET Assay Preparation), at various times the plate was removed and Alamar blue solution (Trek Diagnostics, #00-100) was added per well as a measure of cellular toxicity. After reading in a CYTOFLUOR® 4000 instrument (PE Biosystems), plates were rinsed with PBS and then used for FRET assay by the addition of 30 ul of the FRET peptide assay reagent described above (FRET Assay Preparation) per well. The plate was then placed into the CYTOFLUOR® 4000 instrument which had been set to 340 excite/490 emission, automatic mode for 20 cycles and the plate read in a kinetic mode. Typically, the signal to noise using an endpoint analysis after the reads was at least three-fold. Alternatively, after Alamar blue reading, plates were rinsed with PBS, 50 ul of DMEM (high glucose) without phenol red was added and plates were then used for luciferase assay using the Promega DUAL-GLO® Luciferase Assay System.
Compound analysis was determined by quantification of the relative HCV replicon inhibition and the relative cytotoxicity values. To calculate cytoxicity values, the average Alamar Blue fluorescence signals from the control wells were set as 100% non-toxic. The individual signals in each of the compound test wells were then divided by the average control signal and multiplied by 100% to determine […]. To calculate the HCV replicon inhibition values, an average background value was obtained from the two wells containing the highest amount of HCV protease inhibitor at the end of the assay period. These numbers were similar to those obtained from naïve Huh-7 cells.
The background numbers were then subtracted from the average signal obtained from the control wells and this number was used as 100% activity. The individual signals in each of the compound test wells were then divided by the averaged control values after background subtraction and multiplied by 100% to determine percent activity. EC50 values for a protease inhibitor titration were calculated as the concentration which caused a 50% reduction in FRET or luciferase activity. The two numbers generated for the compound plate, percent cytoxicity and percent activity were used to determine compounds of interest for further analysis.
The HCV replicon luciferase assay was developed to monitor the inhibitory effects of compounds described in the disclosure on HCV viral replication. Utilization of a replicon luciferase reporter assay was first described by Krieger et al (Krieger, N. et al., J. Virology, 75(10):4614-4624 (2001)). HUH-7 cells, constitutively expressing the HCV replicon, were grown in Dulbecco's Modified Eagle Media (DMEM) (Gibco-BRL) containing 10% Fetal calf serum (FCS) (Sigma) and 1 mg/ml G418 (Gibco-BRL). […]
Regarding `COc1ccc2c(c1)C=C(c1c(C(=O)N3C[C@@H](C)O[C@@H](C)C3)cnn1C1CCOCC1)Cn1c-2c(C2CCCCC2)c2ccc(C(=O)NS(=O)(=O)C(C)C)cc21`, the concentration for a half-maximal effect (EC50) fell in the range of 1.7 to 500 nM.

Compound `COc1ccc2c(c1)C=C(c1c(C(=O)N3CCOCC3)cnn1C1CCOCC1)Cn1c-2c(C2CCCCC2)c2ccc(C(=O)NS(=O)(=O)C(C)C)cc21` yielded an EC50 of 1.7 to 500 nM.

With `COc1ccc2c(c1)C=C(c1c(C(=O)N3C4CCC3CN(C)C4)cnn1C1CCOCC1)Cn1c-2c(C2CCCCC2)c2ccc(C(=O)NS(=O)(=O)C(C)C)cc21`, the EC50 was in the range of 1.7 to 500 nM.

Consider `COc1ccc2c(c1)C=C(c1c(C(=O)N3C[C@@H](C)N(C)[C@@H](C)C3)cnn1C1CCOCC1)Cn1c-2c(C2CCCCC2)c2ccc(C(=O)NS(=O)(=O)C(C)C)cc21`, for which the concentration giving a half-maximal response (EC50) was 1.7 to 500 nM.

In the case of `CCN1C[C@@H]2C[C@H]1CN2C(=O)c1cnn(C2CCOCC2)c1C1=Cc2cc(OC)ccc2-c2c(C3CCCCC3)c3ccc(C(=O)NS(=O)(=O)C(C)C)cc3n2C1`, the half-maximal effective concentration (EC50) is 1.7 to 500 nM.

The compound `COc1ccc2c(c1)C=C(c1c(C(=O)N3CC4CCC(C3)N4C)cnn1C1CCOCC1)Cn1c-2c(C2CCCCC2)c2ccc(C(=O)NS(=O)(=O)C(C)C)cc21` displayed an EC50 of 1.7 to 500 nM.

`COc1ccc2c(c1)C=C(c1c(C(=O)N3C[C@@H](C)O[C@@H](C)C3)cnn1C1CCOCC1)Cn1c-2c(C2CCCCC2)c2ccc(C(=O)NS(=O)(=O)CC(C)C)cc21` yielded a 50% effective concentration (EC50) of 1.7 to 500 nM.

`COc1ccc2c(c1)C=C(c1c(C(=O)N3CCOCC3)cnn1C1CCOCC1)Cn1c-2c(C2CCCCC2)c2ccc(C(=O)NS(=O)(=O)CC(C)C)cc21` had a concentration for a half-maximal effect (EC50) of 1.7 to 500 nM.

In the case of `COc1ccc2c(c1)C=C(c1c(C(=O)O)noc1C1CC1)Cn1c-2c(C2CCCCC2)c2ccc(C(=O)NS(=O)(=O)N(C)C)cc21`, the EC50 lay in the range of 1.7 to 500 nM.

As to `COc1ccc2c(c1)C=C(c1ncn(C3CC3)c1C(=O)N1C[C@@H](C)O[C@@H](C)C1)Cn1c-2c(C2CCCCC2)c2ccc(C(=O)NS(=O)(=O)C(C)C)cc21`, the EC50 fell in the range of 1.7 to 500 nM.

The compound `COc1ccc2c(c1)C=C(c1c(C(=O)N3CC4CCC3CN4)cnn1C1CCC1)Cn1c-2c(C2CCCCC2)c2ccc(C(=O)NS(=O)(=O)C(C)C)cc21` (stereo not shown) came in with an EC50 of 1.7 to 500 nM.

For `COc1ccc2c(c1)C=C(c1c(C(=O)N3CCOCC4(CNC4)C3)cnn1C1CCC1)Cn1c-2c(C2CCCCC2)c2ccc(C(=O)NS(=O)(=O)C(C)C)cc21`, the EC50 is 1.7 to 500 nM.

Staying with this assay, now noted: Hepatitis C virus, one of the methods described, exact value.
`COc1ccc2c(c1)C=C(c1c(C(=O)N3C[C@@H](C)O[C@@H](C)C3)cnn1C1CCOCC1)Cn1c-2c(C2CCCCC2)c2ccc(C(=O)NS(=O)(=O)C(C)C)cc21` came in with an EC50 of 8.9 nM.

In the case of `COc1ccc2c(c1)C=C(c1c(C(=O)N3CCOCC3)cnn1C1CCOCC1)Cn1c-2c(C2CCCCC2)c2ccc(C(=O)NS(=O)(=O)CC(C)C)cc21`, the midpoint of the response, the EC50, lay at 8.4 nM.

`COc1ccc2c(c1)C=C(c1c(C(=O)N3CCOCC4(CNC4)C3)cnn1C1CCC1)Cn1c-2c(C2CCCCC2)c2ccc(C(=O)NS(=O)(=O)C(C)C)cc21` returned a concentration for a half-maximal effect (EC50) of 350 nM.

In another assay the target is T1, HCV NS5B (Hepatitis C virus genotype 1b, UniProt Q9WMX2).
T1 construct: The protein was expressed with an 18 amino acid C-terminal truncation to enhance the solubility; made in house; host or cells: E. coli BL21(DE3)
T1 sequence (Q9WMX2 2420-2992): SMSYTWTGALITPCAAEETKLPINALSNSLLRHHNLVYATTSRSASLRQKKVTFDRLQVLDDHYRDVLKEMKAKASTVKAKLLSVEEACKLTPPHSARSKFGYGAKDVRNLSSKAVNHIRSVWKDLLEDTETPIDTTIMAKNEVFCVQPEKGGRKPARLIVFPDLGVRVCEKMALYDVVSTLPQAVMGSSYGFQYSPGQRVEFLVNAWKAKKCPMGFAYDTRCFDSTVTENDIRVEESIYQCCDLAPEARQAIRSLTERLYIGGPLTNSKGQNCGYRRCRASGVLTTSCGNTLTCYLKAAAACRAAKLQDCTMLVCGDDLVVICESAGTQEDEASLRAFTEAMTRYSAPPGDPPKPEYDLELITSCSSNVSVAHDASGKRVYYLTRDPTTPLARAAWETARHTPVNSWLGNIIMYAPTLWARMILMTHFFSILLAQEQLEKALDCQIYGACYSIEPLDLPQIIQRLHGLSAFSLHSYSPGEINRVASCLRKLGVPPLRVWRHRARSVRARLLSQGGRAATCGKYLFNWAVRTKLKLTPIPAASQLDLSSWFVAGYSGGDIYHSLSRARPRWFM
The assay can be described thus: Modified HCV NS5B RdRp enzyme assay (preincubation protocol). It is filed as biochemical. The conditions noted are these: class symbol. The protocol: The cDNA encoding the NS5B protein of HCV, genotype 1b, was cloned into the pET21a expression vector. The protein was expressed with an 18 amino acid C-terminal truncation to enhance the solubility. The E. coli competent cell line BL21(DE3) was used for expression of the protein. Cultures were grown at 37° C. for ˜4 hours until the cultures reached an optical density of 2.0 at 600 nm. The cultures were cooled to 20° C. and induced with 1 mM IPTG. Fresh ampicillin was added to a final concentration of 50 μg/ml and the cells were grown overnight at 20° C.
Cell pellets (3 L) were lysed for purification to yield 15-24 mgs of purified NS5B. The lysis buffer consisted of 20 mM Tris-HCl, pH 7.4, 500 mM NaCl, 0.5% triton X-100, 1 mM DTT, 1 mM EDTA, 20% glycerol, 0.5 mg/ml lysozyme, 10 mM MgCl2, 15 ug/ml deoxyribonuclease I, and Complete TM protease inhibitor tablets (Roche). After addition of the lysis buffer, frozen cell pellets were resuspended using a tissue homogenizer. To reduce the viscosity of the sample, aliquots of the lysate were sonicated on ice using a microtip attached to a Branson sonicator. The sonicated lysate was centrifuged at 100,000×g for 1 hr at 4° C. and filtered through a 0.2 μm filter unit (Corning).
The protein was purified using three sequential chromatography steps: Heparin sepharose CL-6B, polyU sepharose 4B, and […] SP sepharose (Pharmacia). The chromatography buffers were identical to the lysis buffer but contained no lysozyme, deoxyribonuclease I, MgCl2 or protease inhibitor and the NaCl concentration of the buffer was adjusted according to the requirements for charging the protein onto the column. Each column was eluted with a NaCl gradient which varied in length from 5-50 column volumes depending on the column type. After the final chromatography step, the resulting purity of the enzyme is >90% based on SDS-PAGE analysis. The enzyme was aliquoted and stored at −80° C.
HCV RdRp genotype 1b assays were run in a final volume of 60 μl in 96 well plates (Costar 3912). The assay buffer is composed of 20 mM Hepes, pH 7.5, 2.5 mM KCl, 2.5 mM MgCl2, 1 mM DTT, 1.6 U RNAse inhibitor (Promega N2515), 0.1 mg/ml BSA (Promega R3961), and 2% glycerol. All compounds were serially diluted (3-fold) in DMSO and diluted further in water such that the final concentration of DMSO in the assay was 2%. HCV RdRp genotype 1b enzyme was used at a final concentration of 28 nM. A polyA template was used at 6 nM, and a biotinylated oligo-dT12 primer was used at 180 nM final concentration. Template was obtained commercially (Amersham 27-4110). Biotinylated primer was prepared by Sigma Genosys. 3H-UTP was used at 0.6 μCi (0.29 μM total UTP). Reactions were initiated by the addition of enzyme, incubated at 30° C. for 60 min, and stopped by adding 25 μl of 50 mM EDTA containing SPA beads (4 μg/μl, Amersham RPNQ 0007). Plates were read on a Packard TOPCOUNT® NXT after >1 hr incubation at room temperature.
A modified enzyme assay was performed essentially as described for the standard enzyme assay except for the following: The biotinylated oligo dT12 primer was precaptured on streptavidin-coated SPA beads by mixing primer and beads in assay buffer and incubating at room temperature for one hour. Unbound primer was removed after centrifugation. The primer-bound beads were resuspended in 20 mM Hepes buffer, pH 7.5 and used in the assay at final concentrations of 20 nM primer and 0.67 μg/μl beads. Order of addition in the assay: enzyme (14 nM) was added to diluted compound followed by the addition of a mixture of template (0.2 nM), 3H-UTP (0.6 μCi, 0.29 μM), and primer-bound beads, to initiate the reaction; concentrations given are final. Reactions were allowed to proceed for 4 hours at 30° C.
IC50 values for compounds were determined using seven different [I]. IC50 values were calculated from the inhibition using the formula y=A+((B−A)/(1+((C/x)^D))).
`COc1ccc2c(c1)C=C(c1c(C(=O)N3C[C@@H](C)O[C@@H](C)C3)cnn1C1CCOCC1)Cn1c-2c(C2CCCCC2)c2ccc(C(=O)NS(=O)(=O)C(C)C)cc21` showed an IC50 of 1.7 to 500 nM.

In the case of `COc1ccc2c(c1)C=C(c1c(C(=O)N3CCOCC3)cnn1C1CCOCC1)Cn1c-2c(C2CCCCC2)c2ccc(C(=O)NS(=O)(=O)C(C)C)cc21`, the IC50 lay within 1.7 to 500 nM.

`COc1ccc2c(c1)C=C(c1c(C(=O)N3C4CCC3CN(C)C4)cnn1C1CCOCC1)Cn1c-2c(C2CCCCC2)c2ccc(C(=O)NS(=O)(=O)C(C)C)cc21`: the IC50 lay in the range of 1.7 to 500 nM.

`COc1ccc2c(c1)C=C(c1c(C(=O)N3C[C@@H](C)N(C)[C@@H](C)C3)cnn1C1CCOCC1)Cn1c-2c(C2CCCCC2)c2ccc(C(=O)NS(=O)(=O)C(C)C)cc21` yielded an IC50 of 1.7 to 500 nM.

Consider `CCN1C[C@@H]2C[C@H]1CN2C(=O)c1cnn(C2CCOCC2)c1C1=Cc2cc(OC)ccc2-c2c(C3CCCCC3)c3ccc(C(=O)NS(=O)(=O)C(C)C)cc3n2C1`, for which the concentration for half-maximal inhibition (IC50) fell in the range of 1.7 to 500 nM.

As to `COc1ccc2c(c1)C=C(c1c(C(=O)N3CC4CCC(C3)N4C)cnn1C1CCOCC1)Cn1c-2c(C2CCCCC2)c2ccc(C(=O)NS(=O)(=O)C(C)C)cc21`, the IC50 lay in the range of 1.7 to 500 nM.

Turning to `COc1ccc2c(c1)C=C(c1c(C(=O)N3C[C@@H](C)O[C@@H](C)C3)cnn1C1CCOCC1)Cn1c-2c(C2CCCCC2)c2ccc(C(=O)NS(=O)(=O)CC(C)C)cc21`, the IC50 fell in the range of 1.7 to 500 nM.

`COc1ccc2c(c1)C=C(c1c(C(=O)N3CCOCC3)cnn1C1CCOCC1)Cn1c-2c(C2CCCCC2)c2ccc(C(=O)NS(=O)(=O)CC(C)C)cc21` came in with a 50% inhibitory concentration (IC50) of 1.7 to 500 nM.

Still in this assay, the particulars now being: exact value.
Take `COc1ccc2c(c1)C=C(c1c(C(=O)N3C[C@@H](C)O[C@@H](C)C3)cnn1C1CCOCC1)Cn1c-2c(C2CCCCC2)c2ccc(C(=O)NS(=O)(=O)C(C)C)cc21`: the IC50 was 2.6 nM.

Turning to `COc1ccc2c(c1)C=C(c1c(C(=O)N3CCOCC3)cnn1C1CCOCC1)Cn1c-2c(C2CCCCC2)c2ccc(C(=O)NS(=O)(=O)CC(C)C)cc21`, the half-maximal inhibitory concentration (IC50) was 4.2 nM.

A word on the EC50: it is the concentration needed to bring the measured effect to its halfway point. For orientation: IC50 means the point on the concentration scale where inhibition reaches its midpoint.
